Measurements from BindingDB's records for patent US20250248955 (Longivitron (Suzhou) Biotechnology Co., 2025).

The compounds below were run against T1, Acetyl-CoA acetyltransferase, mitochondrial (Homo sapiens, UniProt P24752) (assay: Experimental Method Screening Method of ACAT1 Small Molecule Inhibitors).
T1 sequence (P24752 whole entry): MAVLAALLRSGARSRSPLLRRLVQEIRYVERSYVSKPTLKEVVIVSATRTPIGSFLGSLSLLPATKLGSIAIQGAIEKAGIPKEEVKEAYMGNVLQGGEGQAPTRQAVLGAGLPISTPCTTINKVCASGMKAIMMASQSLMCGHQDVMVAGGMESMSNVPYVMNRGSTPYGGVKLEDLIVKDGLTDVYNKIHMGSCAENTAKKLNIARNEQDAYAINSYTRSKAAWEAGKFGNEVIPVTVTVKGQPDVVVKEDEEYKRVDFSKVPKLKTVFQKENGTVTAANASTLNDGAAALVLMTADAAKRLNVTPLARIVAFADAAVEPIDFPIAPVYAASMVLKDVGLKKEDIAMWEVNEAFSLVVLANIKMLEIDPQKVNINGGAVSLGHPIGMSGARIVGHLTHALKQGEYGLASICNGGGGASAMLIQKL
Procedure: ACAT1 can catalyze two molecules of acetyl coenzyme A to reversibly form acetoacetyl coenzyme A. Its activity was measured through the reaction between ACAT1-catalyzed substrate acetoacetyl-coenzyme A and coenzyme A, from which the product acetyl-coenzyme A is produced. Since acetoacetyl-coenzyme A is specifically absorbed in a specific spectrum, the impact on the enzyme activity of ACAT1 can be reflected through the detection of an increase or decrease of absorption in a specific spectrum.ACAT1 recombinant proteins were expressed and purified by Escherichia coli, and the concentration of ACAT1 recombinant proteins obtained was 1 mg/mL. The buffers adopted for ACAT1 small molecule inhibitor screening were 50 mM Tris-HCl (pH 8.1), 20 mM MgCl2, and 40 mM KCl. In 200 μL of enzyme catalytic system, 1 μL of ACAT1 recombinant proteins, the substrate […] whose final concentration was changed from 25 μM to 100 μM through a CPM probe, and small molecule inhibitors at different concentrations were added, respectively.

Row | SMILES | IC50
1 | O=C(/C=C/c1ccc(O)c(O)c1)Nc1ccc(OCCc2ccccc2)cc1 [US20250248955, Compound M4] | 112 µM
2 | COc1ccc([C@H](O)[C@@H](C)Oc2ccc(OC(=O)/C=C/c3ccc(O)c(O)c3)cc2OC)cc1OC [US20250248955, Compound M2] | > 100 µM
3 | COCOc1ccc(/C=C/C(=O)Nc2ccc(OCCc3ccccc3)cc2)cc1OCOC [US20250248955, Compound M11] | 136 µM
4 | COc1ccc([C@@H](O)[C@@H](C)Oc2ccc(OC(=O)/C=C/c3ccc(O)c(O)c3)cc2OC)cc1OC [US20250248955, Compound M3] | > 100 µM

Further compounds by falling IC50, results first:

Row | IC50 | SMILES
5 | 312 µM | COCOc1ccc(/C=C/C(=O)Nc2ccc(OCCc3ccc(O)cc3)cc2)cc1OCOC [US20250248955, Compound M15]
6 | 172 µM | COCOc1ccc(/C=C/C(=O)Nc2ccc(OCCc3ccc(OC)c(OC)c3)cc2)cc1OCOC [US20250248955, Compound M16]
7 | 152 µM | COCOc1ccc(/C=C/C(=O)Nc2ccc(OCCc3ccc(F)cc3)cc2)cc1OCOC [US20250248955, Compound M13]
8 | 134 µM | O=C(/C=C/c1ccc(O)c(O)c1)Nc1ccc(OCCc2ccc(F)cc2)cc1 [US20250248955, Compound M6]
9 | 114 µM | O=C(/C=C/c1ccc(O)c(O)c1)Nc1ccc(OCCc2ccc(O)cc2)cc1 [US20250248955, Compound M8]
10 | 111 µM | COCOc1ccc(/C=C/C(=O)Nc2ccc(OCCc3ccc(C)cc3)cc2)cc1OCOC [US20250248955, Compound M14]
